As usually defined, the inhibition is the percentage by which the read-out fell short of the control. For orientation: ED50 means the dose that gives a 50% effect, or the effect in half of the subjects. A lower ED50 goes with greater potency. One may read the IC50 as the concentration that gives 50% inhibition.

Test [1] concerns TNF-α. The experiment in a line: In vitro measurement of TNF-α in human PBMC. It counts as cell-based. On the procedure: In Vitro Measurement of TNF-α in Human Peripheral Blood Mononuclear Cells
This assay determines the effect of test compounds on the production of TNF a in human Peripheral Blood Mononuclear Cells (PBMC). Compounds were tested for their ability to inhibit the activity of TNF α in human PBMC. PBMC were isolated from blood (of healthy volunteers) using BD Vacutainer CPT™ (Cell preparation tube, BD Bio Science) and suspended in RPMI medium (Physiol. Res. 52, 593-598, 2003). The test compounds were pre-incubated with PBMC (0.5 million/incubation well) for 15 minutes at 37° C. and then stimulated with Lipopolysaccharide (Escherichia coli: B4; 1 μg/ml) for 18 hours at 37° C. in 5% CO2. The levels of TNF-α in the cell culture medium were estimated using enzyme-linked immunosorbent assay performed in a 96 well format as per the procedure of the manufacturer (Cayman Chemical, Ann Arbor, USA).

For test [2], the system named is TNF-α. The experiment in a line: In vitro measurement of TNF-α in human whole blood. The class given is cell-based. The protocol:
In Vitro Measurement of TNF-α in Human Whole Blood
This assay determines the effect of test compounds on the production of TNF-α in human whole blood. Compounds were tested for their ability to inhibit the activity of TNF-α in whole blood.
Heparanised blood from a healthy human volunteer was collected and diluted with RPMI 1640 incomplete medium (1:5 dilution). Diluted blood was aliquoted into 96 well plate 170 ul/well immediately. 20 ul of the drug of different concentrations was added to the respective wells with a control. The plate was incubated in 37° C. thermo mixer at 400 rpm for 60-70 minutes. After the incubation 10 ul of the LPS (from E. coli B4) was added to get the final concentration of 1 ug/well. The plate was again incubated in the 37° C. thermo mixer at 400 rpm 120 minutes in the thermo mixer and then left in the 37° C. CO2 incubator for two more hours so that the total stimulation time is four hours. The plasma was collected carefully without disturbing the pellet at the bottom and stored at −20° C. Then TNF-α levels were estimated using the R&D systems ELISA kit duoset kit (DY210).

The test system of test [3] is TNF-α. The test is described as follows: LPS induced sepsis for measurement of TNF-α inhibition in mice. The class given is in vivo. The settings on record: Mus musculus; TNF alpha inhibition in mice sepsis model. The protocol: LPS Induced Sepsis for Measurement of TNF-α Inhibition in Mice
The LPS induced sepsis model in mice was performed as described by Les sekut et al (J Lab Clin Med 1994; 124, 813-20). Female Swiss albino mice were selected and the body weights were equivalent within each group. The mice were fasted for 20 hours with free access to water. The mice were dosed orally with the test compound suspended in vehicle containing 0.5% Tween 80 in 0.25% Carboxy-methylcellulose sodium salt. The control mice were administered the vehicle alone. After 30 minutes of oral dosing, mice were injected with 500 μg of Lipopolysaccharide (Escherichia coli, LPS: B4 from Siga) in phosphate buffer saline solution into the intraperitoneal cavity of the mice. After 90 minutes of LPS administration mice were bled via retro-orbital sinus puncture. Blood samples were stored overnight at 4° C. Serum samples were collected by centrifuging the samples at 4000 rpm for 15 minutes at 4° C. Immediately the serum samples were analyzed for TNF-α levels using commercially available mouse TNF-α ELISA kit (Amersham Biosciences) and assay was performed by the manufacturer instruction.
ED50 Measurement of TNF Alpha Inhibition in Mice Sepsis Model

Test [4] concerns TPA induced dermatitis. The experiment in a line: Psoriasis model, TPA induced dermatitis. The class given is in vivo. The settings on record: mice, topical on the ears. The protocol: Inhibitory Activity in Psoriasis Model TPA induced dermatitis in mice was performed using the protocol described in Eur J Pharmacol 507, 253-259, 2005. Balb/c mice were acclimatized to laboratory conditions 5-7 days prior to the start of the experiment. They were randomly distributed to various groups based on body weight. The baseline ear thickness of the animal's both ears using thickness gauge was measured. For each animal 20 μl of that contains 2.5 μg of TPA was applied with help of micropipettor with disposable tips. Test compound was applied topically to both inner and outer surface of the both the ears i.e. left and right ear with acetone as control after 30 minutes 6 hours and 24 hours after application of TPA (20 μl). Ear thickness was measured after 6 and 24 hours in animals, while for ear weight ears were excised under anesthesia and weighed.

Test [5] relates to LPS induced neutrophilia. The test is described as follows: LPS induced neutrophilia model for asthma and COPD. It counts as in vivo. As to conditions: Wistar rats, BAL 4 h after LPS. The protocol: LPS Induced Neutrophilia Model for Asthma and COPD LPS induced neutrophilia in Wistar rats was performed using the protocol described in Pulm Pharmacol & Ther 17, 3, 133-140, 2004. Male Wistar rats were acclimatized to laboratory conditions five to seven days prior to the start of the experiment. They were randomly distributed to various groups based on body weight. Except normal group all the animals were exposed to LPS 100 μg/ml for 40 min. The rats were dosed with the test compound suspended in the vehicle containing 0.25% carboxymethylcellulose before half an hour of LPS exposure. BAL was performed 4 h after LPS exposure, total cell count and DLC was done and compared with control and the standard drug. Percentage Inhibition for neutrophilia was calculated.

Test [6] has as its system PDE4. The test is described as follows: PDE4 activity (source human U937 cells). It counts as biochemical. As to conditions: read-out: PDE4 inhibition IC50 (nm). The protocol:
PDE4 inhibition was measured by following a literature assay procedure (Cortizo J et al., Br J. Pharmacol., 1993, 108: 562-568. The assay method involves the following conditions.
Substrate: 1.01 μM [^3H] camp+camp
Pre-Incubation Time/Temperature: 15 minutes at 25° C.
Incubation Time/Temperature. 20 minutes at 25° C.
Incubation buffer: 50 mM Tris-HCl, pH 7.5, 5 mM MgCl2
Quantitation method: Quantitation of [^3H] Adenosine
Significance criteria: ≧50% of max stimulation or inhibition

The target in test [7] is T1, PDE4B enzyme (Homo sapiens, UniProt Q07343).
T1 construct: purchased Calbiochem
The experiment in a line: PDE4 assay with pure PDE4B enzyme (Calbiochem). It counts as biochemical.

T1 sequence (Q07343 whole entry, species assumed): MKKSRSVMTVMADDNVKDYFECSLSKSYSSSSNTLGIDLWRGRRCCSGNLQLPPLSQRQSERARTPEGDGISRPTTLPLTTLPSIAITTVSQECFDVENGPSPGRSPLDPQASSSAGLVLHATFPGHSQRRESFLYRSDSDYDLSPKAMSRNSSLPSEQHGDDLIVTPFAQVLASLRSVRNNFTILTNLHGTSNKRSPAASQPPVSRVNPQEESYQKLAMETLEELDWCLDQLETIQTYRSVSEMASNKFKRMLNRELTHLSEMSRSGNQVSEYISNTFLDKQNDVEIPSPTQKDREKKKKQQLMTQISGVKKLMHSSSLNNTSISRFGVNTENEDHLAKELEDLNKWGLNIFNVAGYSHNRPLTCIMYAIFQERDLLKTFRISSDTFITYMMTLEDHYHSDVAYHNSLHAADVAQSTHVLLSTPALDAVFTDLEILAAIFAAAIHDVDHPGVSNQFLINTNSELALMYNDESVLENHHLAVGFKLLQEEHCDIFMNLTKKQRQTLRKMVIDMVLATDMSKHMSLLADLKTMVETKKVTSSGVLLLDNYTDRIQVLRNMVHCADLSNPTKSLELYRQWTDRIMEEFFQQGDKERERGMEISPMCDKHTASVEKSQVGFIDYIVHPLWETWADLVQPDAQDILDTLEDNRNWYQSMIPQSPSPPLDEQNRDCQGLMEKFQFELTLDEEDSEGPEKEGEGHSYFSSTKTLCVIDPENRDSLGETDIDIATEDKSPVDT

Take `NS(=O)(=O)c1cccc(-c2c(-c3ccccc3)nc(C(F)(F)F)nc2N2CCOCC2)c1` [Example 98, 3-[4-Morpholin-4-yl-2-(trifluoromethyl)-6-phenyl-pyrimidin-5-yl]benzenesulfonamide]: the inhibition at 1 µM in test [1] (Conc. (1 μM)) is 94.1%; in test [2] (Conc. (1 μM)) it was 40.6%. For the same molecule, the inhibition at 10 µM in test [1] (Conc. (10 μM)) was determined as 94.6%; in test [2] (Conc. (10 μM)), 62%; in test [7], 76.1%. The same molecule returned an ED50 in test [3] of 0.01 mg/kg. In addition, in test [4], the “Psoriasis-acute TPA induced dermatitis % inhibition Ear Wt” value came out at 11.84%. In test [4], the “Psoriasis-acute TPA induced dermatitis % inhibition Ear thickness” value was determined as 41.10%. Further, the “LPS induced neutrophilia % inhibition at 10 mg/kg” value in test [5] is reported as 31.73%. Moreover, the IC50 in test [6] amounted to 7 nM.

The values are drawn from patent publication US8420653B2, “Pyrimidine compounds and their uses” (Orchid Chemicals & Pharmaceuticals Limited, priority 2008, dated 2013).
